The supplement of paper PMC5579334
± gives the standard deviation of the averaged measurements.

Legend:
[1] = test system: HSC1 (primary human Schwann cells); experiment: drug sensitivity score (DSS, CellTox-Green cytotoxicity, 72 h) (DSS (dimensionless)); higher = more cytotoxic; extreme values may be limits of the assay
How it was run: (§1)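 MPNST cell lines and primary human Schwann cells were grown for 72 h at 37 °C in 384-well plates containing five 10-fold compound dilutions. CellTox-Green, added before seeding at a final 1:1000 dilution, gave fluorescence from DNA released by disrupted cells, and signals were scaled to vehicle and positive-control wells. Curves were fitted with a four-parameter logistic model. Drug sensitivity score and relative IC50 come from these fits, with IC50 censored at the top concentration.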

STS26T [2] = experiment: as above
How it was run: as §1

S1507-2 [3] = experiment: as above
How it was run: as §1

ST8814 [4] = experiment: as above
How it was run: as §1

[5] = test system: HSC2 (primary human Schwann cells); experiment: as above
How it was run: as §1

HS-PSS [6] = experiment: as above
How it was run: as §1

[7] = test system: HSC1 (primary human Schwann cells); experiment: drug sensitivity score (DSS, CellTiter-Glo viability, 72 h) (DSS (dimensionless)); higher = more sensitive; extreme values may be limits of the assay
How it was run: (§2)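 For this screen, 384-well plates were preprinted with each compound at five concentrations in 10-fold steps and seeded with MPNST cell lines or primary human Schwann cells at 750–1000 cells per well. Incubation lasted 72 h at 37 °C, 5% CO2, and CellTiter-Glo ATP luminescence, scaled between vehicle and positive-control wells and averaged over duplicates where available, served as viability. Logistic fits with four parameters were applied. Relative IC50 (censored at the top concentration) and drug sensitivity score derive from these fits, and percent inhibition is at the top concentration.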

S462 [8] = experiment: as above
How it was run: as §2

STS26T [9] = experiment: as above
How it was run: as §2

S1507-2 [10] = experiment: as above
How it was run: as §2

YST-1 [11] = experiment: as above
How it was run: as §2

ST8814 [12] = experiment: as above
How it was run: as §2

[13] = test system: HSC2 (primary human Schwann cells); experiment: as above
How it was run: as §2

HS-PSS [14] = experiment: as above
How it was run: as §2

HS-Sch-2 [15] = experiment: as above
How it was run: as §2

[16] = test system: HSC1 (primary human Schwann cells); experiment: % inhibition of CellTiter-Glo viability at highest tested concentration (72 h), relative to DMSO and benzethonium chloride controls; higher = more inhibition
How it was run: as §2

S462 [17] = experiment: as above
How it was run: as §2

STS26T [18] = experiment: as above
How it was run: as §2

S1507-2 [19] = experiment: as above
How it was run: as §2

YST-1 [20] = experiment: as above
How it was run: as §2

ST8814 [21] = experiment: as above
How it was run: as §2

[22] = test system: HSC2 (primary human Schwann cells); experiment: as above
How it was run: as §2

HS-PSS [23] = experiment: as above
How it was run: as §2

HS-Sch-2 [24] = experiment: as above
How it was run: as §2

Compound	drug sensitivity score [1]	drug sensitivity score (STS26T [2])	drug sensitivity score (S1507-2 [3])	drug sensitivity score (ST8814 [4])	drug sensitivity score [5]	drug sensitivity score (HS-PSS [6])	drug sensitivity score [7]	drug sensitivity score (S462 [8])	drug sensitivity score (STS26T [9])	drug sensitivity score (S1507-2 [10])	drug sensitivity score (YST-1 [11])	drug sensitivity score (ST8814 [12])	drug sensitivity score [13]	drug sensitivity score (HS-PSS [14])	drug sensitivity score (HS-Sch-2 [15])	% inhibition [16] [%]	% inhibition (S462 [17]) [%]	% inhibition (STS26T [18]) [%]	% inhibition (S1507-2 [19]) [%]	% inhibition (YST-1 [20]) [%]	% inhibition (ST8814 [21]) [%]	% inhibition [22] [%]	% inhibition (HS-PSS [23]) [%]	% inhibition (HS-Sch-2 [24]) [%]
CN(C)CCN1C(=O)c2cccc3cc(N)cc(c23)C1=O [Amonafide] (max concentration tested 10000 nM)	0	0.0609	2.18 ± 0.64	3.57	0.087	4.02	7.05	8.23 ± 0.65	5.83	8.84 ± 0.35	11.1	8.9	6.42	6.59	8.84	69.3	90.9 ± 2.4	78.7	90.4 ± 2	100	101	76.3	93.8	99.9
O=C1CN2Cc3c(ccc(Cl)c3Cl)N=C2N1 [Anagrelide] (max concentration tested 10000 nM)	0	0	0	0	0.367	0	1.41	0	0	0	0	0.934	11.1	0	8.23	17.3	-5.96 ± 0.63	1.1	-1.32 ± 1.6	2.83	17.3	51.1	4.14	38.7
CC(C)(C#N)c1cc(Cn2cncn2)cc(C(C)(C)C#N)c1 [Anastrozole] (max concentration tested 10000 nM)	0	0	0	0	0	0	0	0	0	0	0	0	0	0	0	-2.19	-13.3 ± 6.7	-1.93	-9.3 ± 9.7	6.26	-7.93	-11	-11.6	-11.4
CC(C)c1c(C(=O)Nc2ccccc2)c(-c2ccccc2)c(-c2ccc(F)cc2)n1CC[C@@H](O)C[C@@H](O)CC(=O)O [Atorvastatin] (max concentration tested 10000 nM)	17.1	2.9	1.46 ± 2.1	2.32	19.6	0	16.6	9.93 ± 0.43	5.4	2.53 ± 0.48	6.47	3.73	19.7	6.74	6.02	97.5	96.5 ± 1.1	69.6	41.9 ± 8	89.5	55.2	101	75.3	80.5
CC(=O)OC[C@H]1O[C@@H]([S-])[C@H](OC(C)=O)[C@@H](OC(C)=O)[C@@H]1OC(C)=O.CCP(CC)CC.[Au+] [Auranofin] (max concentration tested 2500 nM)	7.83	3.5	0.0037 ± 0.0052	0.171	7.25	1.15	8.86	8.14 ± 2	5.55	1.36 ± 1	5.04	3.73	8.02	4.86	9.71	94.8	94.62 ± 0.92	79.9	25.1 ± 9.3	91.7	66.9	95.2	75.4	99.9
CNC(=O)c1ccccc1Sc1ccc2c(/C=C/c3ccccn3)n[nH]c2c1 [Axitinib] (max concentration tested 10000 nM)	1.46	6.29	1.12 ± 1.1	0.581	0.0899	0	7.23	6.12 ± 0.37	5.81	4.27 ± 3.4	4.01	5.17	6.51	2.26	6.01	66.9	52.1 ± 6.1	61.1	38.5 ± 19	39.9	52.7	53.8	38	67.8
Nc1ncn([C@@H]2O[C@H](CO)[C@@H](O)[C@H]2O)c(=O)n1 [Azacitidine] (max concentration tested 10000 nM)	0	0	2.61 ± 3.7	0	0	0	5.39	2.02 ± 0.98	1.02	0	0.39	0.0452	3.59	0.1	0	75.2	34.5 ± 9.2	29.9	3.07 ± 2.9	22.1	12.4	68.2	15.6	10.9
CC[C@@H]1C(=O)N(C)c2cnc(Nc3ccc(C(=O)NC4CCN(C)CC4)cc3OC)nc2N1C1CCCC1 [BI 2536] (max concentration tested 1000 nM)	11.3	32.3	15.6 ± 0.4	19.5	20.1	0.25	13.3	28.42 ± 0.2	29.6	19.5 ± 0.21	20.5	22.1	17.4	15	24.5	62.9	101.6 ± 0.24	75.9	86.7 ± 3	54.1	84.1	79.4	61	66.8
COc1c(C)cnc(Cn2cnc3c(Cl)nc(N)nc32)c1C [BIIB021] (max concentration tested 10000 nM)	20	11.8	15.8 ± 2.9	9.2	19.7	5.44	16.2	20.083 ± 0.0076	16.9	18.1 ± 1.3	15	17.8	17.6	14.4	24.5	96.4	97 ± 1.1	90.3	98.34 ± 0.36	84.3	96.1	96.9	88	99.9
O=C(/C=C/c1cccc(S(=O)(=O)Nc2ccccc2)c1)NO [Belinostat] (max concentration tested 10000 nM)	8.65	12.7	12.2 ± 2	12.4	8.85	4.69	15.4	12.7 ± 0.28	13	16.6 ± 0.76	18.1	17.2	13.2	10.8	13.7	102	102.5 ± 0.29	98.9	104 ± 1.3	101	102	101	88.1	101
Cn1c(CCCC(=O)O)nc2cc(N(CCCl)CCCl)ccc21 [Bendamustine] (max concentration tested 10000 nM)	0	0	0	0	0	0	0	0	0	0	0.01	0	0	0	0	5.73	-6.58 ± 4	0.816	-3.59 ± 5.5	10.4	-3.13	8.93	4.27	9.41
C=C(c1ccc(C(=O)O)cc1)c1cc2c(cc1C)C(C)(C)CCC2(C)C [Bexarotene] (max concentration tested 10000 nM)	0	0	1.23 ± 0.75	0	0	0	2.52	0	0	2.77 ± 0.55	0	0	0	0	0	11.7	-9.52 ± 9.1	-8.14	22.7 ± 3.6	-1.34	5.83	-0.128	-11.5	4.76
CC(O)(CS(=O)(=O)c1ccc(F)cc1)C(=O)Nc1ccc(C#N)c(C(F)(F)F)c1 (stereo unspecified) [Bicalutamide] (max concentration tested 10000 nM)	0	0	0	0	0	0	0.0562	0.149 ± 0.21	0.0466	0	0	0	0	0.45	0.01	11.9	7.3 ± 7.9	12	0.808 ± 0.64	-3.03	7.2	-3.88	14.1	12.8
CCNC(=O)CCC/C=C\C[C@@H]1[C@@H](/C=C/[C@@H](O)CCc2ccccc2)[C@H](O)C[C@@H]1O [Bimatoprost] (max concentration tested 5500 nM)	0	0	0	0	0	0.89	0	0.502 ± 0.71	0	0.00145 ± 0.0021	0	0	0	0.89	0.89	2.26	9.55 ± 12	7.31	0.42 ± 0.85	7.41	2.33	9.6	-11.6	-3.66
